The results in this text go back to ChEMBL document CHEMBL3272271, “Folate antagonists. 13. 2,4-Diamino-6-](alpha,alpha,alpha-trifluoro-m-tolyl)thio]quinazoline and related 2,4-diamino-6-[(phenyl- and naphthyl)thio]quinazolines, a unique class of antimetabolites with extraordinary antimalarial and antibacterial effects” (J Med Chem, 1978).

Activity calls are given as the source filed them. The rule behind the calls is not given here.

Series [1] has as its system Plasmodium berghei. Put plainly: Antimalarial activity against Plasmodium berghei infected in mouse assessed as increase in mean survival days of host at 20 mg/kg, sc administered 72 hrs after infection relative to control. The class given is functional. The note with it: route subcutaneous.
In series [2] the test system is Plasmodium gallinaceum. Put plainly: Antimalarial activity against trophozoite-induced Plasmodium gallinaceum infected in white leghorn chicken assessed as increase in mean survival days of host at 160 mg/kg, sc administered 72 hrs after infection relative to control. The class given is functional. The note with it: route subcutaneous.
The subject of series [3] is Plasmodium berghei. Briefly: Antimalarial activity against Plasmodium berghei infected in mouse assessed as increase in mean survival days of host at 5 mg/kg, sc administered 72 hrs after infection relative to control. The class given is functional. The note with it: route subcutaneous.
The subject of series [4] is Plasmodium berghei. Briefly: Antimalarial activity against Plasmodium berghei infected in mouse assessed as increase in mean survival days of host at 10 mg/kg, sc administered 72 hrs after infection relative to control. Type of series: functional. The note with it: route subcutaneous.
In series [5] the test system is Plasmodium berghei. Briefly: Antimalarial activity against Plasmodium berghei infected in mouse assessed as increase in mean survival days of host at 2.5 mg/kg, sc administered 72 hrs after infection relative to control. The class given is functional. To be noted: route subcutaneous.
In series [6] the test system is Plasmodium gallinaceum. Briefly: Antimalarial activity against trophozoite-induced Plasmodium gallinaceum infected in white leghorn chicken assessed as increase in mean survival days of host at 10 mg/kg, sc administered 72 hrs after infection relative to control. The note with it: route subcutaneous. The class given is functional.
Series [7] deals with Plasmodium gallinaceum. Briefly: Antimalarial activity against trophozoite-induced Plasmodium gallinaceum infected in white leghorn chicken assessed as increase in mean survival days of host at 2.5 mg/kg, sc administered 72 hrs after infection relative to control. The class given is functional. To be noted: route subcutaneous.
Series [8] has as its system Plasmodium gallinaceum. Briefly: Antimalarial activity against trophozoite-induced Plasmodium gallinaceum infected in white leghorn chicken assessed as increase in mean survival days of host at 20 mg/kg, sc administered 72 hrs after infection relative to control. Type of series: functional. The note with it: route subcutaneous.
The subject of series [9] is Plasmodium gallinaceum. Briefly: Antimalarial activity against trophozoite-induced Plasmodium gallinaceum infected in white leghorn chicken assessed as increase in mean survival days of host at 1.25 mg/kg, sc administered 72 hrs after infection relative to control. The class given is functional. To be noted: route subcutaneous.
The subject of series [10] is Plasmodium berghei. Put plainly: Antimalarial activity against Plasmodium berghei infected in mouse assessed as increase in mean survival days of host at 1.25 mg/kg, sc administered 72 hrs after infection relative to control. The class given is functional. To be noted: route subcutaneous.
The subject of series [11] is Gallus gallus. Briefly: Toxicity in trophozoite-induced Plasmodium gallinaceum infected white leghorn chicken assessed as mortality at 320 mg/kg, sc administered 72 hrs after infection measured after 48 hrs. The class given is organism-based. Also on record: dose 320 mg/kg, route subcutaneous. The note with it: in vivo.
For series [12], the system named is Plasmodium gallinaceum. Briefly: Antimalarial activity against trophozoite-induced Plasmodium gallinaceum infected in white leghorn chicken assessed as increase in mean survival days of host at 40 mg/kg, sc administered 72 hrs after infection relative to control. The class given is functional. To be noted: route subcutaneous.
The test system of series [13] is Plasmodium gallinaceum. Briefly: Antimalarial activity against trophozoite-induced Plasmodium gallinaceum infected in white leghorn chicken assessed as increase in mean survival days of host at 80 mg/kg, sc administered 72 hrs after infection relative to control. Type of series: functional. To be noted: route subcutaneous.
Series [14] relates to Plasmodium gallinaceum. Put plainly: Antimalarial activity against trophozoite-induced Plasmodium gallinaceum infected in white leghorn chicken assessed as increase in mean survival days of host at 5 mg/kg, sc administered 72 hrs after infection relative to control. Type of series: functional. The note with it: route subcutaneous.
Series [15] deals with Plasmodium berghei. Briefly: Antimalarial activity against Plasmodium berghei infected in mouse assessed as increase in mean survival days of host at 160 mg/kg, sc administered 72 hrs after infection relative to control. To be noted: route subcutaneous. Type of series: functional.
The test system of series [16] is Plasmodium berghei. Put plainly: Ratio of quinine hydrochloride SD90 to compound SD90 for trophozoite-induced Plasmodium berghei infected in mouse assessed as daily dose required to suppression of 90% parasite infection administered with diet for 6 days. The class given is functional.
The next series concerns Pseudomonas aeruginosa. Briefly: Antibacterial activity against Pseudomonas aeruginosa 28 by gradient plate test. The class given is functional.
In series [17] the test system is Plasmodium berghei. Put plainly: Antimalarial activity against Plasmodium berghei infected in mouse assessed as disease cure from parasite infection at 320 mg/kg, sc administered 72 hrs after infection. The class given is functional, organism-based. Also on record: dose 320 mg/kg.
The test system of a further series is Escherichia coli. Briefly: Antibacterial activity against Escherichia coli Vogel by gradient plate test. Type of series: functional.
The subject of series [18] is Plasmodium berghei. Put plainly: Antimalarial activity against Plasmodium berghei infected in mouse assessed as increase in mean survival days of host at 320 mg/kg, sc administered 72 hrs after infection relative to control. Type of series: functional. To be noted: route subcutaneous.
In series [19] the test system is Staphylococcus aureus. Put plainly: Antibacterial activity against Staphylococcus aureus UC-96 by gradient plate test. The class given is functional.
The next series relates to Enterococcus faecalis. Put plainly: Antibacterial activity against Streptococcus faecalis MGH-2 by gradient plate test. The class given is functional.
Series [20] relates to Plasmodium gallinaceum. Put plainly: Antimalarial activity against sporozoite-induced Plasmodium gallinaceum infected in white leghorn chicken assessed as increase in mean survival days of host at 240 mg/kg, sc administered 72 hrs after infection relative to control. Type of series: functional. The note with it: route subcutaneous.
In series [21] the test system is Plasmodium berghei. Briefly: Antimalarial activity against trophozoite-induced Plasmodium berghei infected in mouse assessed as daily dose required to suppression of 90% parasite infection administered with diet for 6 days. The class given is functional.
A further series relates to Shigella sonnei. Briefly: Antibacterial activity against Shigella sonnei C-10 by gradient plate test. Type of series: functional.
The test system of series [22] is Plasmodium berghei. Put plainly: Antimalarial activity against Plasmodium berghei infected in mouse assessed as increase in mean survival days of host at 40 mg/kg, sc administered 72 hrs after infection relative to control. Type of series: functional. The note with it: route subcutaneous.
For series [23], the system named is Staphylococcus aureus. Briefly: Antibacterial activity against drug-resistant Staphylococcus aureus S18713 by gradient plate test. The class given is functional.
The subject of series [24] is Gallus gallus. Briefly: Toxicity in sporozoite-induced Plasmodium gallinaceum infected white leghorn chicken assessed as mortality at 240 mg/kg, sc administered 72 hrs after infection measured up to 6 days. Type of series: organism-based. Also on record: dose 240 mg/kg, route subcutaneous. To be noted: in vivo.
Series [25] relates to Plasmodium berghei. Put plainly: Antimalarial activity against Plasmodium berghei infected in mouse assessed as increase in mean survival days of host at 80 mg/kg, sc administered 72 hrs after infection relative to control. Type of series: functional. To be noted: route subcutaneous.
Series [26] concerns Plasmodium gallinaceum. Briefly: Antimalarial activity against sporozoite-induced Plasmodium gallinaceum infected in white leghorn chicken assessed as increase in mean survival days of host at 120 mg/kg, sc administered 72 hrs after infection relative to control. The class given is functional. To be noted: route subcutaneous.
In series [27] the test system is Plasmodium gallinaceum. Briefly: Antimalarial activity against trophozoite-induced Plasmodium gallinaceum infected in white leghorn chicken assessed as increase in mean survival days of host at 320 mg/kg, sc administered 72 hrs after infection relative to control. Type of series: functional. To be noted: route subcutaneous.
Series [28] relates to Plasmodium berghei. Put plainly: Antimalarial activity against Plasmodium berghei infected in mouse assessed as disease cure from parasite infection at 160 mg/kg, sc administered 72 hrs after infection. Type of series: functional, organism-based. Also on record: dose 160 mg/kg.
Series [29] concerns Gallus gallus. Put plainly: Toxicity in sporozoite-induced Plasmodium gallinaceum infected white leghorn chicken assessed as mortality at 480 mg/kg, sc administered 72 hrs after infection measured up to 6 days. Also on record: dose 480 mg/kg, route subcutaneous. The class given is organism-based. To be noted: in vivo.

As for `CN(Cc1ccc(Cl)c(Cl)c1)c1ccc2nc(N)nc(N)c2c1`, the MST in the series with Plasmodium berghei [1] came out at 14.9 days; in the series on Plasmodium gallinaceum [2], 21 days; with Plasmodium berghei [3], 2.9 days; in the series with Plasmodium berghei [4], 7.5 days; with Plasmodium berghei [5], 1.5 days; with Plasmodium gallinaceum [6] it was 7.4 days. Also, the MST in the series with Plasmodium gallinaceum [7] was found to be 6 days; in the series with Plasmodium gallinaceum [8], 10.6 days; in the series on Plasmodium gallinaceum [9] it was 1.4 days; in the series on Plasmodium berghei [10] it was 0.3 days; with Plasmodium gallinaceum [12] it was 15.6 days; with Plasmodium gallinaceum [13], 20.6 days. Further, the MST in the series on Plasmodium gallinaceum [14] amounted to 6.8 days. Further, the Activity result in the series on Gallus gallus [11] is “Toxic”.
For `Nc1nc(N)c2cc(Sc3ccccc3)ccc2n1`, the MST was 4.7 days in the series with Plasmodium berghei [1]; 14 days in the series on Plasmodium berghei [15]; 7.8 days with Plasmodium gallinaceum [2]; 14.7 days in the series on Plasmodium berghei [18]; 1.1 days with Plasmodium berghei [3]; 3.3 days with Plasmodium berghei [4]. Also, the MST with Plasmodium gallinaceum [6] is 0 days; in the series on Plasmodium gallinaceum [20], 1.6 days; in the series on Plasmodium gallinaceum [8] it was 5.6 days; with Plasmodium berghei [22], 6.3 days; in the series on Plasmodium berghei [25] it was 9.7 days; in the series with Plasmodium gallinaceum [26] it was 2.4 days. Also, the results for the MST in the series with Plasmodium gallinaceum [27], in the series on Plasmodium gallinaceum [12] and in the series with Plasmodium gallinaceum [13] were 11.4 days, 6.2 days and 6.4 days, respectively. For the same compound, the Ratio in the series with Plasmodium berghei [16] was determined as 9.1. For the same compound, the MIC with Pseudomonas aeruginosa is greater than 25 µg/mL; in the series on Escherichia coli, less than 0.25 µg/mL; with Staphylococcus aureus [19], less than 0.25 µg/mL; against Enterococcus faecalis, less than 0.25 µg/mL; in the series on Shigella sonnei it was less than 0.25 µg/mL; against Staphylococcus aureus [23], less than 0.25 µg/mL. The outcome in the series with Plasmodium berghei [17] and in the series with Plasmodium berghei [28] was Active. In the series on Plasmodium berghei [21], the SD90 is reported as 8.2 mg/kg/day. Moreover, the Activity result with Gallus gallus [24] and in the series with Gallus gallus [29] was “Toxic” in each case.

As a reminder, the MIC is the lowest concentration found to suppress growth.
